Patent publication US20260191925A2, “TISSUE OCCLUDING AGENT COMPRISING AN IEIKIEIKIEIKI PEPTIDE” (3-D Matrix, Ltd., priority 2008, published 2026)
“Also recorded” adds a separate entry of the source. No end group written: not given here.

Tests used:
[1] = test system: rabbit hepatic incision; assay: Rabbit hepatic transection model (Example 9); type: in vivo; settings: 1% solution, 1 minute after treatment, after rinsing with physiological saline
Experimental: (§1) The rabbits were subcutaneously administered (3 mg/kg) Celactar 2% injection (2.0 g content as xylazine in 100 mL, product of Bayer Ltd.), and then ketamine (50 mg content as ketamine in 1 mL, product of Fuji Chemical Industries, Ltd.) was intravenously administered (10 mg/kg) for anesthesia.
The rabbits were laparotomized by median section and the hepatic left lobes were exposed and sharply transected with a scalpel to about 1 cm to induce hemorrhage.
After confirming exudative hemorrhage from the incision, the blood was removed as much as possible with gauze and the hepatic incision was treated with aqueous peptide solution.
The gelled aqueous peptide solution was removed 1 minute after treatment using physiological saline, and the presence of any hemorrhage from the hepatic incision was visually confirmed.

[2] = Self-assembly of aqueous peptide solution with rabbit bile (Example 10); type: physicochemical; settings: covered with rabbit bile, approximately 30 seconds
Experimental: as §1
The rabbits were laparotomized by median section, and bile was sampled from the gallbladder using a 23 G injection needle (Terumo Corp.).
Droplets of each aqueous peptide solution before self-assembly were prepared (diameter: approximately 5-8 mm), and the sampled bile was gently poured thereover so as to cover the aqueous peptide solution.

[3] = test system: rabbit portal vein stem; assay: Rabbit portal vein stem injection needle perforation model, sugar-containing solutions (Example 4); type: in vivo
Experimental: as §1
(§2) The rabbits were laparotomized by median section. Approximately 10 cm of the abdominal aorta and portal vein stem was exposed, each blood vessel was ablated from the surrounding tissue, and the abdominal aorta was punctured with a 26 G, 25 G or 23 G injection needle (Terumo Corp.) while the portal vein stem was punctured with a 26 G injection needle (Terumo Corp.).
(§3) After 1-2 minutes of treatment, blood flow was released and the presence of hemorrhage was visually examined.

[4] = test system: rabbit gastric mucosa incision; assay: Rabbit gastric mucosa incision model (Example 8); type: in vivo; settings: 1 minute after treatment, after rinsing with physiological saline
Experimental: as §1
The rabbits were laparotomized by median section and the stomachs were incised, after which the gastric mucosa was exposed and sharply incised with a scalpel to about 1 cm to induce hemorrhage.
After confirming blood oozing from the incision, the blood was removed as much as possible with gauze and the gastric mucosa incision was treated with aqueous peptide solution.
The gelled aqueous peptide solution was removed 1 minute after treatment using physiological saline, and the presence of any hemorrhage from the gastric mucosa incision was visually confirmed.

[5] = test system: rabbit abdominal aorta; assay: Rabbit abdominal aorta injection needle perforation model (Example 1); type: in vivo; settings: for hemostatic effect (hemorrhage visually examined): after release of clamp
Experimental: as §1
as §2, with “a” for “a 26 G, 25 G or”
(§4) Upon confirming hemorrhage, blood flow at the peripheral end and central end was clamped with a hemostatic clamp, and after removing the hemorrhaged blood with physiological saline and gauze, it was immediately treated with the aqueous peptide solution.
(§5) After 1-2 minutes of treatment, blood flow was released and the presence of hemorrhage from the puncture site was visually examined.

[6] = test system: rabbit portal vein stem; assay: Rabbit portal vein stem injection needle perforation model (Example 1); type: in vivo
Experimental: as §1
as §2, with “a” for “a 26 G, 25 G or”
as §4, §5

[7] = test system: resected liver surface; assay: Rabbit partial liver resection model (Example 2); type: in vivo; settings: for hemorrhage from cut surface after rinsing with physiological saline: FIG. 2; for rabbits showing complete hemostasis: partial liver resection
Experimental: as §1
The rabbits were laparotomized by median section, and the hepatic left or right lobe was sharply excised to a size of approximately 5 cm width×3 cm length from the edge using a scalpel, to prepare a liver section.
Blood flow was released 1-2 minutes after treatment, the aqueous peptide solution that was gelled was removed by physiological saline, and the presence of any hemorrhage from the resected liver surface s was visually confirmed.
The resected liver surface in which a hemostatic effect was seen were fixed with 20% formalin and histopathologically evaluated by HE staining.

[8] = test system: abdominal aorta of rabbits with reduced blood clotting function; assay: Abdominal aorta injection needle perforation model of rabbits with suppressed blood clotting function (heparin) (Example 3); type: in vivo, rabbit; settings: for Observations: heparin 1,000 units
Experimental: as §1
The rabbits were laparotomized by median section. Approximately 10 cm of the abdominal aorta was exposed, the blood vessel was ablated from the surrounding tissue, and the vessel was punctured with a 26 G, 25 G or 23 G injection needle (Terumo Corp.).
Upon confirming hemorrhage, blood flow at the peripheral end and center end was clamped with a hemostatic clamp, and after removing the hemorrhaged blood with physiological saline and gauze, it was immediately treated with the aqueous peptide solution.
as §3

[9] = test system: rabbit abdominal aorta; assay: Rabbit abdominal aorta injection needle perforation model, sugar-containing solutions (Example 4); type: in vivo
Experimental: as §1, §2, §3

[10] = test system: rabbit bile duct wall; assay: Rabbit bile duct injection needle perforation model (Example 6); type: in vivo; settings: 26 G needle
Experimental: as §1
The rabbits were laparotomized by median section. Approximately 10 cm of the bile duct was exposed, and after ablation from the surrounding tissue, the bile duct was punctured with a 26 G injection needle.
After confirming discharge of bile and continuous flow of bile, the bile flow was blocked with a hemostatic clamp.
The leaked bile was removed with physiological saline and gauze, and then treated with 3% aqueous peptide solution.
After 2 minutes of treatment, bile flow blockage was released and the presence of bile flow from the puncture site was visually examined.

[11] = test system: canine intravesical tumor / vesical mucosa; assay: Canine intravesical tumorectomy, submucosal injection (Example 7); type: in vivo, dog
Experimental: Canine intravesical tumorectomy was carried out under general anesthesia management, by the following procedure.
After hypogastric incision with an electrocautery scalpel (Erbe, Inc.), the electrocautery scalpel was used for incision of the bladder to expose the intravesical tumor (pedunculated tumor with a base site diameter of approximately 0.5 cm that is elevated from the vesical mucosa).
3% Aqueous peptide solution was submucosally injected around the tumor base in 4 injections of 0.5 mL each, and elevation of the tumor on the mucosa was confirmed.
After elevating the tumor, the tumor was excised with an electronic scalpel.
The time from aqueous peptide solution injection to complete tumor excision was approximately 2 minutes.

[12] = test system: rat portal vein; assay: Rat portal vein embolization (Example 11); type: in vivo; settings: 4 mL injected through portal vein stem, liver extracted after 5 minutes, HE staining
Experimental: The rats were subjected to inhalation anesthesia with diethyl ether (Kishida Chemical Co., Ltd.).
The rats were laparotomized by median section and the portal veins were exposed.
A 4 mL portion of aqueous peptide solution was injected through the portal vein stem with a 26 G injection needle (Terumo Corp.), and hemorrhage from the puncture site was immediately arrested with aqueous peptide solution.
The livers were extracted 5 minutes after injection and immediately fixed with 10% formalin (Wako Pure Chemical Industries, Ltd.).
The tissue was stained with haematoxylin eosin (HE) 1 week after fixing.

1% IEIK9 aqueous peptide solution: 1% aqueous peptide solution, peptide sequence IEIK9 (SEQ ID NO: 4) (Ac-IEIKIEIKI)
hemostatic effect (hemorrhage from hepatic incision) [1]: hemorrhage observed from incision site
hemostatic effect (hemorrhage from hepatic incision) ([1]; listed as IEIK9 aqueous peptide solution): no hemostatic effect
bile-induced self-assembly [2]: virtually no self-assembly seen

Ac-(IEIK)3I-CONH2 [1% IEIK13 aqueous peptide solution]
hemostatic effect (hemorrhage from hepatic incision) [1]: no hemorrhage observed from incision site
hemostatic effect (hemorrhage from hepatic incision) ([1]; listed as IEIK13 aqueous peptide solution): no hemorrhage was observed
bile-induced self-assembly [2]: self-assembly confirmed

Ac-(KLDL)3-CONH2 (Ac-KLDLKLDLKLDL-NH2) [1% KLD aqueous peptide solution]
hemostatic effect (hemorrhage from hepatic incision) [1]: no hemorrhage observed from incision site
hemostatic effect (hemorrhage from hepatic incision) ([1]; listed as KLD aqueous peptide solution): no hemorrhage was observed
bile-induced self-assembly [2]: self-assembly confirmed

Ac-(RADA)4-NH2 (Ac-RADARADARADARADA-NH2) [2% aqueous peptide solution]
hemostatic effect (compared between the solutions) ([3]; portal vein stem 26 G needle perforation): equivalent
Observation ([3]; portal vein stem, 26 G needle): Complete
hemorrhage from gastric mucosa incision [4]: no hemorrhage from incision site

Ac-(RADA)4-NH2 [1% aqueous peptide solution] (Ac-RADARADARADARADA-NH2)
hemostatic effect (hemorrhage visually examined) [5]: hemostasis was not complete; also recorded: resumed hemorrhage following declamp
hemostatic effect (hemorrhage visually examined) [6]: persistent phleborrhagia
hemorrhage from cut surface after rinsing with physiological saline [7]: no hemorrhage observed from cut surface
rabbits showing complete hemostasis [7]: two of two

Ac-(RADA)4-NH2 [1.5% PuraMatrix aqueous peptide solution]
bile-induced self-assembly [2]: self-assembly confirmed

Ac-(RADA)4-NH2 [3% aqueous peptide solution] (Ac-RADARADARADARADA-NH2)
rabbits demonstrating complete hemostasis [5]: two of two
hemostatic effect (hemorrhage visually examined) [5]: completely hemorrhage-arrested blood vessel
cases demonstrating complete hemostasis [6]: two of two
hemorrhage from cut surface after rinsing with physiological saline [7]: hemorrhage observed from cut surface
rabbits showing complete hemostasis [7]: 1 of 4
Observations ([8]; 23 G needle): Complete hemostasis
Observations ([8]; 25 G needle): Complete hemostasis
Observations ([8]; 26 G needle): Complete hemostasis
hemostatic effect (hemorrhage visually examined) ([8]; heparin-treated rabbits, 26 G, 25 G and 23 G needle perforation): complete hemostasis; also recorded: perivascular hemorrhage of (b) not seen after declamp
Observation ([9]; 23 G needle): Complete
Observation ([9]; 25 G needle): Complete
Observation ([9]; 26 G needle): Complete
Observations [10]: Aqueous peptide solution gelled
bile duct wall occlusion effect (bile leakage) [10]: complete bile duct wall occlusion effect; also recorded: bile leakage of (b) not observed around bile duct
hemorrhage at excision site after tumor excision ([11]; excision by electrocautery): no hemorrhage at excision site after tumor excision
hemorrhage at excision site during tumor excision ([11]; excision by electrocautery): no hemorrhage at excision site during tumor excision
mucosal swelling (elevation) of excision site ([11]; submucosal injection, 4 injections of 0.5 mL): swelling of affected area confirmed
portal vein embolization [12]: Embolization of portal vein confirmed
